From patent US5320955A, “10'desmethoxystreptonigrin production by Streptomyces albus” (priority 1992, dated 1994)
Converted amounts (≈) assume the structure as drawn. “And” between values parts separate entries of the source, which are not always exact repeats. Equal entries are not always repeated. Where two headings read alike, the source gives them in different places.

Key:
tumor = details: background statement; cited from earlier work
[1] = background statement; cited from earlier work
Streptococcus faecalis = experiment: Antibacterial activity in vitro, agar dilution MIC; assay type: cell-based; details: Enterococcus faecalis, 37° C., 18 hours, read-out: Minimum Inhibitory Concentration (MIC)
Method: (§1) The following methodology was used to determine the minimum inhibitory concentration (hereinafter referred to as MIC) of 10'-desmethoxystreptonigrin against bacteria. The test organisms were grown in 20 ml of Antiobiotic Assay Broth (Difco) by inoculating the broth (in tubes) with a loopful of the organism from a BHI (Difco) agar slant. The inoculated tubes were incubated at 37° C. for 18 to 24 hours. These cultures were assumed to contain 10^9 colony forming units (CFU) per ml. The cultures were diluted 1:100 to give a final inoculum level of 10^7 CFU; dilutions were made with Yeast-Beef Broth (Difco). The test compound was dissolved in an appropriate diluent at a concentration of 1,000 μg/ml. Two-fold dilutions were made in Yeast-Beef Broth (Difco), resulting in a range from 1000 μg/ml to 0.5 μg/ml. A 1.5 ml portion of each dilution was placed into individual petri dishes to which 13.5 ml of K-10 agar was added. The composition of K-10 agar is:
(§2) The medium was sterilized at 121° C. for 15 minutes at 15 lbs. psi.
(§3) The final drug concentration in the agar ranged from 100 μg/mL to 0.05 μg/mL. Organism growth control plates containing agar only were prepared and inoculated before and after the test plates. The organisms were applied to the agar surface of each plate with a Denly Multipoint Inoculator (which delivers approximately 0.001 mL of each inoculum) resulting in a final inoculum of 10^4 CFU on the agar plate.
(§4) The plates were incubated at 37° C. for 18 hours and the MICs determined. The MIC is the lowest concentration of compound inhibiting growth of the organism.

Shigella sonnei = experiment: Antibacterial activity in vitro, agar dilution MIC; assay type: cell-based; details: SC8449, strain SC# 8449, 37° C., 18 hours, read-out: Minimum Inhibitory Concentration (MIC)
Method: as §1, §2, §3, §4

Micrococcus luteus = experiment: Antibacterial activity in vitro, agar dilution MIC; assay type: cell-based; details: SC2495, strain SC# 2495, 37° C., 18 hours, read-out: Minimum Inhibitory Concentration (MIC)
Method: as §1, §2, §3, §4

Enterobacter cloacae = experiment: Antibacterial activity in vitro, agar dilution MIC; assay type: cell-based; details: SC8236, strain SC# 8236, 37° C., 18 hours, read-out: Minimum Inhibitory Concentration (MIC)
Method: as §1, §2, §3, §4

Pseudomonas cepacia = experiment: Antibacterial activity in vitro, agar dilution MIC; assay type: cell-based; details: Burkholderia cepacia, SC14164; strain SC# 14164; 37° C., 18 hours; read-out: Minimum Inhibitory Concentration (MIC)
Method: as §1, §2, §3, §4

Klebsiella pneumoniae = experiment: Antibacterial activity in vitro, agar dilution MIC; assay type: cell-based; details: 18 hours, read-out: Minimum Inhibitory Concentration (MIC)
Method: as §1, §2, §3, §4

Enterobacter aerogenes = experiment: Antibacterial activity in vitro, agar dilution MIC; assay type: cell-based; details: Klebsiella aerogenes, SC10078; strain SC# 10078; 37° C., 18 hours; read-out: Minimum Inhibitory Concentration (MIC)
Method: as §1, §2, §3, §4

Nocardia autotrophica = experiment: Antibacterial activity in vitro, agar dilution MIC; assay type: cell-based; details: Pseudonocardia autotrophica, SC8994; strain SC# 8994; 37° C., 18 hours; read-out: Minimum Inhibitory Concentration (MIC)
Method: as §1, §2, §3, §4

Listerella monocytogenes = experiment: Antibacterial activity in vitro, agar dilution MIC; assay type: cell-based; details: strain SC# 8523; 37° C., 18 hours; read-out: Minimum Inhibitory Concentration (MIC)
Method: as §1, §2, §3, §4

Staphylococcus aureus = experiment: Antibacterial activity in vitro, agar dilution MIC; assay type: cell-based; details: 18 hours, read-out: Minimum Inhibitory Concentration (MIC)
Method: as §1, §2, §3, §4

Pseudomonas aeruginosa = experiment: Antibacterial activity in vitro, agar dilution MIC; assay type: cell-based; details: read-out: Minimum Inhibitory Concentration (MIC)
Method: as §1, §2, §3, §4

Salmonella typhosa = experiment: Antibacterial activity in vitro, agar dilution MIC; assay type: cell-based; details: Salmonella enterica, SC1195 / TYPHOSA; strain SC# 1195; 37° C., 18 hours; read-out: Minimum Inhibitory Concentration (MIC)
Method: as §1, §2, §3, §4

Acinetobacter anitratus = experiment: Antibacterial activity in vitro, agar dilution MIC; assay type: cell-based; details: Acinetobacter calcoaceticus, SC14207; strain SC# 14207; 37° C., 18 hours; read-out: Minimum Inhibitory Concentration (MIC)
Method: as §1, §2, §3, §4

Proteus mirabilis = experiment: Antibacterial activity in vitro, agar dilution MIC; assay type: cell-based; details: SC3855, strain SC# 3855, 37° C., 18 hours, read-out: Minimum Inhibitory Concentration (MIC)
Method: as §1, §2, §3, §4

[2] = test system: Acinetobacter calcoaceticus; experiment: Antibacterial activity in vitro, agar dilution MIC; assay type: cell-based; details: SC8333, strain SC# 8333, 37° C., 18 hours, read-out: Minimum Inhibitory Concentration (MIC)
Method: as §1, §2, §3, §4

Mycobacterium fortuitum = experiment: Antibacterial activity in vitro, agar dilution MIC; assay type: cell-based; details: Mycolicibacterium fortuitum, SC8571; strain SC# 8571; 37° C., 18 hours; read-out: Minimum Inhibitory Concentration (MIC)
Method: as §1, §2, §3, §4

Proteus vulgaris = experiment: Antibacterial activity in vitro, agar dilution MIC; assay type: cell-based; details: SC9416, strain SC# 9416, 37° C., 18 hours, read-out: Minimum Inhibitory Concentration (MIC)
Method: as §1, §2, §3, §4

Escherichia coli = experiment: Antibacterial activity in vitro, agar dilution MIC; assay type: cell-based; details: 18 hours, read-out: Minimum Inhibitory Concentration (MIC)
Method: as §1, §2, §3, §4

Serratia marcescens = experiment: Antibacterial activity in vitro, agar dilution MIC; assay type: cell-based; details: SC9783, strain SC# 9783, 37° C., 18 hours, read-out: Minimum Inhibitory Concentration (MIC)
Method: as §1, §2, §3, §4

Bacillus subtilis = experiment: Antibacterial activity in vitro, agar dilution MIC; assay type: cell-based; details: SC3777, strain SC# 3777, 37° C., 18 hours, read-out: Minimum Inhibitory Concentration (MIC)
Method: as §1, §2, §3, §4

Streptococcus agalactiae = experiment: Antibacterial activity in vitro, agar dilution MIC; assay type: cell-based; details: 18 hours, read-out: Minimum Inhibitory Concentration (MIC)
Method: as §1, §2, §3, §4

[3] = test system: HCT/VM46 human colon cells; experiment: In vitro cytotoxicity vs. human tumor cell lines; assay type: cell-based; details: HCT/VM46, resistant to teniposide, in triplicate, each printed
Method: (§5) 10'-Desmethoxystreptonigrin was also tested for cytotoxicity in vitro against human tumor cell lines according to the method of Catino et al., "A microtitre cytotoxicity assay useful for the discovery of fermentation derived antitumor agents", Cancer Chemother., Pharmacol. 15: 240-243 (1985). Modification of the dye employed therein was made according to Scudiero et al., "Evaluation of a soluble tetrazolium/formazan assay for cell growth and drug sensitivity in culture using human and other tumor cell lines," Cancer Research 48:4827-4833,1 (1988). The assays were performed in triplicate against human ovarian (A2780DDP and A2780S) and colon (HCT-116, HCT/VM46 and HCT/VP35) tumor cell lines. Such cell lines are, for example, described by Long et al., "The effects of mitomycin on human colon carcinoma cells," J. Nat. Cancer Inst. 73: 787-792 (1984) (HCT-116) and Masuda et al., "Increased DNA repair as a mechanism of acquired resistance to cis-diamminedichloroplatinum (II) in human ovarian cancer cell lines," Cancer Research 48: 5713-5716 (1988) (A2780 ).

[4] = test system: HCT-116 human colon cells; experiment: In vitro cytotoxicity vs. human tumor cell lines; assay type: cell-based; details: in triplicate, each printed
Method: as §5

[5] = test system: HCT/VP35 human colon cells; experiment: In vitro cytotoxicity vs. human tumor cell lines; assay type: cell-based; details: in triplicate, each printed
Method: as §5

[6] = target: protein-cysteine farnesyltransferase; experiment: Inhibition of farnesylation of p21 ras protein; assay type: biochemical; details: assay of Manne et al.; read-out: IC50 in inhibiting the farnesylation of p21 ras protein
P388 murine leukemia = experiment: In vivo tests in mice, intraperitoneally implanted P388 murine leukemia model; details: intraperitoneally implanted P388, nontoxic levels
Excerpt: ^+ In vivo tests in mice using the intraperitoneally implanted P388
lifespan compared to control groups at nontoxic levels of
10desmethoxystreptonigrin.

[7] = test system: A2780S human ovarian cells; experiment: cells; assay type: cell-based
Method: as §5

SMILES: COC1=C(N)C(=O)c2nc(-c3nc(C(=O)O)c(C)c(-c4ccc(OC)c(OC)c4O)c3N)ccc2C1=O [streptonigrin, 5'-amino-6'-(7-amino-5,-8-dihydro-6-methoxy-5,8-dioxo-2-quinolyl)-4'-(8'-hydroxy-9',10'-dimethoxyphenyl)-3'-methyl-2'-pyridinecarboxylic acid]
- activity as an antitumor antibiotic (tumor): has shown activity as an antitumor antibiotic
- toxic effect, for example, in bone marrow depression [1]: significant toxic effect

SMILES: COC1=C(N)C(=O)c2nc(-c3nc(C(=O)O)c(C)c(-c4cccc(OC)c4O)c3N)ccc2C1=O [10'-Desmethoxystreptonigrin, 5'-amino-6'-(7-amino-5,8-dihydro-6-methoxy-5,8-dioxo-2-quinolyl)-4'-(8'-hydroxy-9'-methoxyphenyl)-3'-methyl-2'-pyridinecarboxylic acid]
- MIC (Streptococcus faecalis; SC9011, strain SC# 9011): 1.6 µg/mL (≈ 3.36 µM)
- MIC (Streptococcus faecalis; SC9610, strain SC# 9610): 1.6 µg/mL (≈ 3.36 µM)
- MIC (Shigella sonnei): 1.6 µg/mL (≈ 3.36 µM)
- MIC (Micrococcus luteus): 0.4 µg/mL (≈ 0.84 µM)
- MIC (Enterobacter cloacae): > 100 µg/mL
- MIC (Pseudomonas cepacia): > 25 µg/mL
- MIC (Klebsiella pneumoniae; SC9527, strain SC# 9527, 37° C.): 3.1 µg/mL (≈ 6.51 µM)
- MIC (Klebsiella pneumoniae; SC10440, strain SC# 10440, 37° C.): 3.1 µg/mL (≈ 6.51 µM)
- MIC (Enterobacter aerogenes): 25 µg/mL (≈ 52.5 µM)
- MIC (Nocardia autotrophica): 3.1 µg/mL (≈ 6.51 µM)
- MIC (Listerella monocytogenes): 1.6 µg/mL (≈ 3.36 µM)
- MIC (Staphylococcus aureus; SC1276, strain SC# 1276, 37° C.): 0.4 µg/mL (≈ 0.84 µM)
- MIC (Staphylococcus aureus; SC2399, strain SC# 2399, 37° C.): 0.2 µg/mL (≈ 0.42 µM)
- MIC (Staphylococcus aureus; SC2400, strain SC# 2400, 37° C.): 0.2 µg/mL (≈ 0.42 µM)
- MIC (Staphylococcus aureus; SC10165, strain SC# 10165, 37° C.): 0.2 µg/mL (≈ 0.42 µM)
- MIC (Pseudomonas aeruginosa; SC8329, 18 h): 6.3 µg/mL (≈ 13.2 µM)
- MIC (Pseudomonas aeruginosa; SC9545, strain SC# 9545, 37° C., 18 hours): 1.6 µg/mL (≈ 3.36 µM)
- MIC (Salmonella typhosa): 1.6 µg/mL (≈ 3.36 µM)
- MIC (Acinetobacter anitratus): 3.1 µg/mL (≈ 6.51 µM)
- MIC (Proteus mirabilis): 3.1 µg/mL (≈ 6.51 µM)
- MIC [2]: > 100 µg/mL
- MIC (Mycobacterium fortuitum): 50 µg/mL (≈ 105 µM)
- MIC (Proteus vulgaris): 0.4 µg/mL (≈ 0.84 µM)
- MIC (Escherichia coli; SC8294, strain SC# 8294, 37° C.): 3.1 µg/mL (≈ 6.51 µM)
- MIC (Escherichia coli; SC10857, strain SC# 10857, 37° C.): 0.8 µg/mL (≈ 1.68 µM)
- MIC (Escherichia coli; SC10896, strain SC# 10896, 37° C.): 0.4 µg/mL (≈ 0.84 µM)
- MIC (Escherichia coli; SC10909, strain SC# 10909, 37° C.): < 0.05 µg/mL
- MIC (Escherichia coli; SC12864, strain SC# 12864, 37° C.): 1.6 µg/mL (≈ 3.36 µM)
- MIC (Serratia marcescens): 6.3 µg/mL (≈ 13.2 µM)
- MIC (Bacillus subtilis): 0.2 µg/mL (≈ 0.42 µM)
- MIC (Streptococcus agalactiae; SC9287, strain SC# 9287, 37° C.): 1.6 µg/mL (≈ 3.36 µM)
- MIC (Streptococcus agalactiae; SC14008, strain SC# 14008, 37° C.): 1.6 µg/mL (≈ 3.36 µM)
- IC50 cytotoxicity [3]: 0.002 µg/mL and < 0.001 µg/mL
- IC50 ([3]; Homo sapiens): 0.001 µg/mL (≈ 0.0021 µM)
- IC50 cytotoxicity ([4]; HCT-116): 0.003 µg/mL (≈ 0.0063 µM)
- IC50 ([4]; Homo sapiens, HCT-116, HCT-116): 0.006 µg/mL (≈ 0.0126 µM)
- IC50 cytotoxicity ([5]; HCT/VP35, resistant to etoposide): 0.002 µg/mL (≈ 0.0042 µM)
- IC50 ([5]; Homo sapiens, HCT/VP35, HCT/VP35, resistant to etoposide): 0.003 µg/mL (≈ 0.0063 µM)
- IC50 [6]: 23.5 µM
- increase in lifespan compared to control groups (P388 murine leukemia): no statistically significant increase
- IC50 ([7]; Homo sapiens, read-out: IC50 cytotoxicity, A2780S, in triplicate, each printed): 0.001 µg/mL (≈ 0.0021 µM)
- IC50 cytotoxicity ([7]; in triplicate, each printed): 0.002 µg/mL and < 0.001 µg/mL
